Measurements as given in US10179801B2, “Truncated LYP-1 peptides and methods and compositions using truncated LYP-1 peptides” (SANFORD-BURNHAM MEDICAL RESEARCH INSTITUTE, priority 2011, dated 2019).
“Also recorded” adds a separate entry of the source. Blank lines part the entries; values can stand above or below the substance they belong to. Ends that are not written are not given here. * marks the point of attachment. Biotin = O=C1N[C@H]2[C@H](CS[C@H]2CCCCC(=O)*)N1

How the values were obtained:
PPC1 cells = assay: Phage binding and internalization into PPC1 cells (confocal microscopy); assay type: cell-based, human; settings: 30 min pre-incubation, increasing concentrations, phage 2 h
Protocol: (§1) Cells were grown on collagen I-coated coverslips (BD Biosciences) for 24-72 h. After 4% PFA fixation, cells were stained with antibodies following the same procedure as for tumor sections, and mounted in DAPI-containing mounting media. For phage binding assay, 10^9 pfu of phage in cell culture medium were incubated for 1-2 h. When neutravidin-peptide inhibitors were used, they were added to the cell medium 30 min prior to phage incubation. Neutravidin alone, at the maximum concentration used in the assay, was used as a control. Cells were examined on a Fluoview 500 confocal microscope (Olympus America).
Phage were detected by staining with anti-T7 phage polyclonal antibody. Nuclei were stained with DAPI. […] Cells were co-stained for NRP1 and nuclei were stained with DAPI. […] Non-conjugated neutravidin was used as a control. Nuclei were stained with DAPI. Cells were analyzed by confocal microscopy.

MDA-MB-435 cells = assay: Phage binding and internalization into MDA-MB-435 cells (confocal microscopy); assay type: cell-based, human; settings: 30 min pre-incubation, increasing concentrations, phage 2 h
Protocol: as §1
Cells were co-stained for NRP2 and nuclei were stained with DAPI. […] Non-conjugated neutravidin was used as a control. Nuclei were stained with DAPI.
Having established that tLyP-1, but not LyP-1, binds to NRP1 and NRP2, but both peptides internalize into tumor cells, it was realized that LyP-1 is converted into tLyP-1 and that the two peptides are taken up by cells through the CendR pathway. The effect of an excess of tLyP-1 on LyP-1 internalization was tested. […] After 30 min pre-incubation with increasing concentrations of neutravidin-tLyP-1 peptide, MDA-MB-435 cells were incubated with LyP-1 phage for 2 h. Phage were stained with anti-T7 antibody. Nuclei were stained with DAPI.

NRP1 = target: T1, NRP1 (Homo sapiens, UniProt O14786); assay: Phage binding to DU145 cells with ligand-blocking anti-NRP1; assay type: cell-based; settings: 4° C.
T1 construct: endogenous in cells; host or cells: DU145 prostate carcinoma cells
T1 sequence (O14786 22-923): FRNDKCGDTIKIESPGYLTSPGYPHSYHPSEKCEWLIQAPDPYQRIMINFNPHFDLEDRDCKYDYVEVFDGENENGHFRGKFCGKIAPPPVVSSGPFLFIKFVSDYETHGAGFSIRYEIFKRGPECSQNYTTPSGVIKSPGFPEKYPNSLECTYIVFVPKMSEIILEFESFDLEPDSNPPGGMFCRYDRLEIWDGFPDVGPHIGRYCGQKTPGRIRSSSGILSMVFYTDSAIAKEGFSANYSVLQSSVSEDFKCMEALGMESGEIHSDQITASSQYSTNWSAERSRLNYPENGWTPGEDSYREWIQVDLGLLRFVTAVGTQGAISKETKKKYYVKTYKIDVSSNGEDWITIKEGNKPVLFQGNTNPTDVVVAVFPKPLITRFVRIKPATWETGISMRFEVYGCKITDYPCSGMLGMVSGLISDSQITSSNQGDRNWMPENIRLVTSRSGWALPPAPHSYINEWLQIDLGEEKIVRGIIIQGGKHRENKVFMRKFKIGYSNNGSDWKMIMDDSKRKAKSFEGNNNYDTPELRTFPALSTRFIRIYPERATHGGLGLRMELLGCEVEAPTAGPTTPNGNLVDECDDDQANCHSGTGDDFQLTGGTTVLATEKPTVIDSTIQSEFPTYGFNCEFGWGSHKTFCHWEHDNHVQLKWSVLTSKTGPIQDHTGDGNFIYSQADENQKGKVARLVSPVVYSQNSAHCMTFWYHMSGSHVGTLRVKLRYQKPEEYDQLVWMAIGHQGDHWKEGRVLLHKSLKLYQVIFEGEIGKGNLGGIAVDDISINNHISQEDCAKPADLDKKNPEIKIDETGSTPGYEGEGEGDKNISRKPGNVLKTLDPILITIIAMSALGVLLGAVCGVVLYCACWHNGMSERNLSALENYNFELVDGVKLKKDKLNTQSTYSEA
Protocol: To measure phage binding on cells, 2×10^5 suspended cells were incubated with 7×10^8 pfu/mL of T7 phage in DMEM/BSA 1% for 1 h at 4° C. Ligand-blocking antibodies or control goat IgG isotype (10 μg/sample) were added 30 min prior to phage incubation. The cells were washed four times with DMEM/BSA 1%, and lysed with lysogeny broth containing 1% Nonidet P-40 (LB/NP40) before phage titration.
The role of the CendR motif in the LyP-1 peptide was investigated by testing the binding of phage displaying the predicted active CendR fragment CGNKRTR (tLyP-1 for truncated LyP-1; SEQ ID NO:4) and other truncated forms of LyP-1 to cultured tumor cells. DU145 prostate carcinoma cells were used, which express NRP1, but not NRP2 (FIG. 6). As these peptides could have other receptors on the DU145 cells, inhibition of cell binding by a function-blocking anti-NRP1 antibody was used as an indicator of NRP1 dependence of phage binding. […] This is supported by recent modeling studies showing that glycine-containing peptides (G7 (SEQ ID NO:104), G3RG3 (SEQ ID NO:105), and G4RG2 SEQ ID NO:106) were able to dock in NRP1 binding pocket without major deformation of the receptor structure (Haspel et al, 2011).

4T1 tumors = assay: FAM-peptide homing in 4T1 tumor bearing mice; assay type: in vivo, BALB/c mice; settings: i.v., 1 h circulation
Protocol: To produce 4T1 tumors, BALB/c mice were orthotopically injected into the mammary fat pad with 10^6 cells suspended in 100 μL of PBS. To produce MDA-MB-435 breast tumors, BALB/C athymic nude mice were orthotopically injected into the mammary fat pad with 2×10^6 cells suspended in 100 μL of PBS.
4T1 tumor bearing BALB/c mice and MDA-MB-435 tumor bearing nude mice were intravenously injected with respectively 150 μL and 100 μL of 1 mM FAM-labeled synthetic peptides. After 1 h circulation, mice were perfused and tissues were collected and observed under UV light (Illuma—tool Bright Light System LT-9900) and processed for immunofluorescence analysis.
150 μl of 1 mM FAM-tLyP-1 or control FAM-[…] was intravenously injected into 4T1 tumor bearing mice. The peptides were allowed to circulate for 1 h and tumors and organs were collected and viewed under UV light. […] FAM-tLyP-1 (100 μl of 1 mM) was intravenously injected into MDA-MB-435 tumor bearing mice. The peptide was allowed to circulate for 45 min, and tumor and organs were collected and viewed under UV light. […] Confocal microscope images were made of the tumor and of normal organs after 1 h of FAM-tLyP-1 circulation in 4T1 tumor bearing mice.

tumor [1] = settings: CGKRK by itself; cited from earlier work
p32 [2] = target: T2, p32 (Homo sapiens, UniProt Q07021); assay: ELISA-based saturation assay of FAM-peptides on purified p32; assay type: binding; settings: wells coated with 3 μg/mL p32, 37° C. 1 h
T2 sequence (Q07021 74-282): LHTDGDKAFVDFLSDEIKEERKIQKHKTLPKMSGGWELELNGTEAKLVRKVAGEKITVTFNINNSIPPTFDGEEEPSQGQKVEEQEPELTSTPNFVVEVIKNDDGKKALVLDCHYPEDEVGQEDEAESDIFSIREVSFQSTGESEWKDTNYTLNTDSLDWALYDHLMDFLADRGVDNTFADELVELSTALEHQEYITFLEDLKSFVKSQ
Protocol: Binding of FAM-tLyP-1 and FAM-LyP-1 to p32 was measured by an ELISA-based assay. Microtiter wells coated with 3 μg/mL of purified p32 (Fogal et al, 2008) were incubated with increasing concentrations of FAM-peptides at 37° C. for 1 h. After washing with cold PBS added with 0.01% Tween 20 and 0.2 M NaCl, fluorescence was read at 495 nm.
(§2) The MDA-MB-435 cells express the cell surface LyP-1 primary receptor p32 (Fogal et al, 2008). To test whether internalization of tLyP-1 and LyP-1 could occur through this receptor, tLyP-1 capacity to bind p32 was explored. […] Thus, only the intact LyP-1 peptide binds to p32.

p32 [3] = target: T3, p32 (Mus musculus, UniProt O35658); assay: Affinity chromatography of 4T1 breast tumor extracts on tLyP-1; assay type: binding; settings: data not shown
T3 construct: from tissue; host or cells: 4T1 breast tumor extracts (orthotopic tumors in BALB/c mice)
T3 sequence (O35658 71-278): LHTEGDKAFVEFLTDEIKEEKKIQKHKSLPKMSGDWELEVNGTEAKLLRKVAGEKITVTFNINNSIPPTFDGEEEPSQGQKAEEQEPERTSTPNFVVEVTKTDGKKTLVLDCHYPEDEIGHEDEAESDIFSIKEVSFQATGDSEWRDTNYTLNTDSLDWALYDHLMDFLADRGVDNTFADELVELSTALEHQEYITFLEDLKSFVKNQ
Text: as §2

tumor [4] = assay: Tumor penetration of a compound co-administered with tLyP-1; assay type: in vivo; settings: tLyP-1 peptide injected together with CGKRK; confocal microscopy
Text: Thus, tLyP-1 can also induce penetration of a co-administered compound.

Substance: oligomeric RPARPAR peptide: tetrameric biotinylated RPARPAR peptide conjugated with neutravidin (Biotin-RPARPAR; not fully specified (C-terminus); also: tetrameric, biotinylated, conjugated with neutravidin)
Inhibition of tLyP-1 phage internalization into PPC1 cells (PPC1 cells): inhibited in a dose-dependent manner
Inhibition of tLyP-1 phage binding and internalization in MDA-MB-435 cells (MDA-MB-435 cells): blocked the binding and internalization

Substance: CGNKR
Effect of ligand-blocking anti-NRP1 on phage binding to DU145 cells (in words) (NRP1): not enough to confer significant ability to bind to NRP1

Substance: FAM-ARALPSQRSR: control peptide, fluorescein-labeled ARALPSQRSR (not fully specified; fluorescein label)
Tumor fluorescence / accumulation of FAM-peptide (4T1 tumors): did not accumulate in the tumors; also recorded: absence of fluorescence

Substance: CGKRK [tumor-homing peptide]
Exit from blood vessels of peptide alone (tumor [1]): unable to get out of blood vessels by itself

Substance: CGNK
Effect of ligand-blocking anti-NRP1 on phage binding to DU145 cells (in words) (NRP1): not enough to confer significant ability to bind to NRP1

Effect of ligand-blocking anti-NRP1 on phage binding to DU145 cells (in words) (NRP1): mild reproducible decrease
Substance: CGNKRTRG

Binding to purified p32 (p32 [2]): low binding
Binding of p32 from tumor extract to peptide affinity matrix (p32 [3]): no binding of p32
Substance: CGNKRTR [tLyP-1, truncated form of LyP-1, in which CendR motif is exposed]
Tumor penetration of co-injected CGKRK (tumor [4]): enhanced tumor penetration of CGKRK
